Here are results for one molecule from patent US20080313751A1, “Method by Using Human or Mice-Isg12 to Develop and Prepare Drugs and Single Nucleotide Polymorphism in the Isg12 Gene for Diagnostic Use” (priority 2005, published 2008).

In the experiment the test system is NR4A1. Nature of the experiment: Subcellular (cytosol/nucleus) distribution of NR4A1 with overexpressed ISG12. In kind it is cell-based, human. Conditions: EGFP-tagged NR4A1 and myc-tagged ISG12 overexpressed; data not shown. The text has this:
In order to quantify the effect of ISG12 on the cellular localization of NR4A1, the inventors analyzed the distribution of NR4A1 between the cytosol and the nucleus by separating sub-cellular fractions of 293 cells in which EGFP-tagged NR4A1 was overexpressed in the absence or presence of myc-tagged ISG12. In the presence of ISG12 20.8±7.4% (average±SD from 4 experiments; p<0.05) more NR4A1 was found in the cytosol as in the absence of ISG12. […] A representative example is given (n=3).
When the same experiments were performed with an EGFP-tagged NR4A1 construct (AA248-580) that cannot be exported from the nucleus^24 no influence of ISG12 on subcellular distribution of that construct was seen (FIG. 5). Similarly, the effect of ISG12 on full length NR4A1 was impaired in the presence of leptomycin B that inhibits nuclear export (data not shown).
Human embryonic kidney 293 cells were grown in 6-wells to sub-confluence and then transfected with EGFP-NR4A1 and mycISG12 together or separately. Cell fractionation was performed 30 hours after transfection, using MS buffer (210 mM mannitol, 70 mM sucrose, 5 mM Tris-HCl, pH 7.5 and 1 mM EDTA) containing 1% protease inhibitor cocktail. After homogenizing the cells with a 27 gauge needle 10 times, samples were spun at 1300×g for 10 minutes at 4° C. to pellet the nuclei. […]

As to `CCC(=C/[C@H](C)C/C=C/C(C)=C/[C@@H](C)C(=O)[C@@H](C)[C@H](O)[C@@H](C)C/C(C)=C/C(=O)O)/C=C/[C@@H]1OC(=O)C=C[C@@H]1C` [leptomycin B], the “effect of ISG12 on full length NR4A1 (nuclear export / subcellular distribution) in the presence of the substance” value was “impaired”.
